This note sets out measurements from ChEMBL document CHEMBL1201862, “PubChem BioAssay data set” (2004).

The structures appear in SMILES notation. Active and inactive are the calls of the source. Where only a bound is given, the exact number is not on record here.

A short description of data set [1]: Luminescence Cell-Based Dose Response HTS to Identify Activators of Luciferase Translation or Activity in H4 […] Cells. [Related pubchem assays: 1829 (Project Summary), 1814 (Primary HTS)]. Type of data set: functional.
The next data set relates to H4. Description: Luminescence Cell-Based Dose Response HTS to Identify Activators of 5'UTR Stem-Loop Driven Prion Protein mRNA Translation in H4 Neuroglioblastoma Cells. [Related pubchem assays: 1829 (Project Summary), 1814 (Primary HTS)]. Format: functional. The following applies: Homo sapiens.
A short description of data set [2]: Luminescence Cell-Based Dose Confirmation HTS to Identify Activators of 5'UTR Stem-Loop Driven Alpha-Synuclein mRNA Translation in H4 Neuroglioblastoma Cells. [Related pubchem assays: 1829 (Project Summary), 1814 (Primary HTS)]. Format: functional.
The target of the next data set is Cytochrome P450 2C9 (Homo sapiens, UniProt P11712).
Cytochrome P450 2C9, sequence (P11712 whole entry): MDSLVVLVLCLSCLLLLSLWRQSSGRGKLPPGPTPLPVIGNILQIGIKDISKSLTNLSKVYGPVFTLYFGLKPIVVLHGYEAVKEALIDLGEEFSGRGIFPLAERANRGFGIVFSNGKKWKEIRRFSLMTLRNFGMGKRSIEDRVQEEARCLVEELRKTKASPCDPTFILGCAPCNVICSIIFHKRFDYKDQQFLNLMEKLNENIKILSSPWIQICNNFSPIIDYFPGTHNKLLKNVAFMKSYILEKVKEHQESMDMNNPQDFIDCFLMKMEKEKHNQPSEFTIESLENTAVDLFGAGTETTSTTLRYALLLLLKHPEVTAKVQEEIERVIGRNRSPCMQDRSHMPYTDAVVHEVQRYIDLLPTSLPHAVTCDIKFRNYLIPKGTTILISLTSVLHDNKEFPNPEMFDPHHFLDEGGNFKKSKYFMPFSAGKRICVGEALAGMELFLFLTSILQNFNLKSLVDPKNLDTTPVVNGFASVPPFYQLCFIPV
The target in another data set is T1, Cytochrome P450 1A2 (Homo sapiens, UniProt P05177).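 Further: PubChem cytochrome P450 panel assay, CYP1A2 panel member.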
T1 sequence (P05177 whole entry): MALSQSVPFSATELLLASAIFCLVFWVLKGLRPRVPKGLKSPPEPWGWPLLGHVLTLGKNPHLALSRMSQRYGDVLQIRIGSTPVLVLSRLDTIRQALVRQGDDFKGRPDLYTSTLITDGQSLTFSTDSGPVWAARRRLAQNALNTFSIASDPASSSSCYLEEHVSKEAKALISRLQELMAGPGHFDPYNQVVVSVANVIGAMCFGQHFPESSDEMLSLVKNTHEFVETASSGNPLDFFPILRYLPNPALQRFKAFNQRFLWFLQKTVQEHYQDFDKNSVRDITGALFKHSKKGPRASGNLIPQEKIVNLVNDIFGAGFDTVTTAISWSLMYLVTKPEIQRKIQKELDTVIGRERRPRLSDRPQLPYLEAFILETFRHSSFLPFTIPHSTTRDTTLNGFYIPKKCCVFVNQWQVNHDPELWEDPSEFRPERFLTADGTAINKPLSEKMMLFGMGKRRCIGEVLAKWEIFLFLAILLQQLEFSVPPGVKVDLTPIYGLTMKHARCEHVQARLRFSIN

For another data set, the target named is Cytochrome P450 3A4 (Homo sapiens, UniProt P08684).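 Further: CYP3A4 tested as one member of a cytochrome P450 panel screen.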
Cytochrome P450 3A4, sequence (P08684 whole entry): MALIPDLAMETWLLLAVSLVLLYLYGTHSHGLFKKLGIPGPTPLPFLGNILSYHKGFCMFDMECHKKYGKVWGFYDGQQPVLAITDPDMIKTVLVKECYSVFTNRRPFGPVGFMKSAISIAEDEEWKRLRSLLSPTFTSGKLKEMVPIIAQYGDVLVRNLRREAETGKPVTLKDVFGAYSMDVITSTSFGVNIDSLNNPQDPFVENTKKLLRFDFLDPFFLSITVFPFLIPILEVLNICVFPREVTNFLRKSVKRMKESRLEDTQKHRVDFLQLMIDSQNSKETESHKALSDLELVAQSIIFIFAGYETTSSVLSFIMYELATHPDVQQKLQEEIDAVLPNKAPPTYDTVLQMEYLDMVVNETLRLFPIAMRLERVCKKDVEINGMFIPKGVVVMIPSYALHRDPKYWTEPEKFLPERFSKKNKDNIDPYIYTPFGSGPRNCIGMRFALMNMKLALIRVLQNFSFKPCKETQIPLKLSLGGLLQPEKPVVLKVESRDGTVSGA
Data set [3] has as its target T2, Rac GTPase-activating protein 1 (Homo sapiens, UniProt Q9H0H5).
T2 sequence (Q9H0H5 whole entry): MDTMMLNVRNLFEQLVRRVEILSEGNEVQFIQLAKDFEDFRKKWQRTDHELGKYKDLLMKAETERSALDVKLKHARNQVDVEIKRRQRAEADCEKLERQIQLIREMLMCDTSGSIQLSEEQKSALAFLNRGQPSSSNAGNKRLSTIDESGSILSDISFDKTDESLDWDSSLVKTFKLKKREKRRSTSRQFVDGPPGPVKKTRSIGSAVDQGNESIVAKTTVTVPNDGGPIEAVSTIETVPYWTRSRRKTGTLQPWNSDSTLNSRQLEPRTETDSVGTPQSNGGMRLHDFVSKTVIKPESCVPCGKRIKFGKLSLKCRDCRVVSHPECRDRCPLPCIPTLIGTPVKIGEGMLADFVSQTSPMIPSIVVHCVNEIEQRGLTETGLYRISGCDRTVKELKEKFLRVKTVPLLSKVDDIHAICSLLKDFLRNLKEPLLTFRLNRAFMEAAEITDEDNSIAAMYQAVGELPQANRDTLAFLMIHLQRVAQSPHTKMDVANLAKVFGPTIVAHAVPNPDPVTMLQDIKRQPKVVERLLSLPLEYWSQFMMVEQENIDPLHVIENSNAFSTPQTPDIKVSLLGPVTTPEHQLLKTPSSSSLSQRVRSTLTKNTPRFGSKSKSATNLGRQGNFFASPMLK
As to the kind of experiment: MgcRacGAP GTPase-activating activity inhibitors, confirmation, biochemical, ADP Hunter fluorescence, primary and confirmatory (AID 624330). Type of data set: functional.

Data set [4] in a line: P. falciparum Dd2 growth inhibitors, dose response, SYBR Green, cherry-picked samples (AID 1159567). Format: functional, cell-based.
Data set [5] can be described thus: inhibitors of intracellular T. cruzi replication, confirmation, NIH3T3 host cells, beta-gal luminescence (AID 2044).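 Further: intracellular parasites grown in NIH/3T3 mouse fibroblasts as host cells; luminescent beta-galactosidase reporter signal from transgenic T. cruzi replicating inside host cells; inhibitors lower the luminescence signal.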 Type of data set: functional, cell-based.
The nature of data set [6]: cytotoxicity toward NIH3T3 fibroblasts, dose response, counter-screen, cell-based, ATP luminescence, mouse fibroblasts (AID 2010).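 Further: cells exposed to compound for about 90 hours before reading.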 Format: functional. On the technique in general: The purpose of a counterscreen is to sort out artefacts and off-target activity.
The next data set deals with Cytochrome P450 2D6 (Homo sapiens, UniProt P10635).
Cytochrome P450 2D6, sequence (P10635 whole entry): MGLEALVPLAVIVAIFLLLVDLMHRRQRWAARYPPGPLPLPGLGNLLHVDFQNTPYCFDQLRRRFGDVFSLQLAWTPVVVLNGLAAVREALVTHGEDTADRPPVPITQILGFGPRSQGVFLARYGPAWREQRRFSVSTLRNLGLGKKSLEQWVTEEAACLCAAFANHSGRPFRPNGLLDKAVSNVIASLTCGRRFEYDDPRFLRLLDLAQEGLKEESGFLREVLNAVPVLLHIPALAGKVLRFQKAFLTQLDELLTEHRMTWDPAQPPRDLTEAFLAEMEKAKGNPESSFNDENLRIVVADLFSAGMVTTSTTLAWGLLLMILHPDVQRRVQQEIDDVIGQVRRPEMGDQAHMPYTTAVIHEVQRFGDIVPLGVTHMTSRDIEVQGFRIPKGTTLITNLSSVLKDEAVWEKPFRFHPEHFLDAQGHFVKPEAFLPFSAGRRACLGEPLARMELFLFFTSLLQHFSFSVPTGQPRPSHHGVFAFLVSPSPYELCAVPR
For another data set, the target named is Cytochrome P450 2C19 (Homo sapiens, UniProt P33261). As to the kind of experiment: Cytochrome panel assay with activity outcomes. Panel member name: p450-cyp2c19 Compounds with AC50 equal or less than 10 uM are considered active. Type of data set: functional.
Cytochrome P450 2C19, sequence (P33261 whole entry): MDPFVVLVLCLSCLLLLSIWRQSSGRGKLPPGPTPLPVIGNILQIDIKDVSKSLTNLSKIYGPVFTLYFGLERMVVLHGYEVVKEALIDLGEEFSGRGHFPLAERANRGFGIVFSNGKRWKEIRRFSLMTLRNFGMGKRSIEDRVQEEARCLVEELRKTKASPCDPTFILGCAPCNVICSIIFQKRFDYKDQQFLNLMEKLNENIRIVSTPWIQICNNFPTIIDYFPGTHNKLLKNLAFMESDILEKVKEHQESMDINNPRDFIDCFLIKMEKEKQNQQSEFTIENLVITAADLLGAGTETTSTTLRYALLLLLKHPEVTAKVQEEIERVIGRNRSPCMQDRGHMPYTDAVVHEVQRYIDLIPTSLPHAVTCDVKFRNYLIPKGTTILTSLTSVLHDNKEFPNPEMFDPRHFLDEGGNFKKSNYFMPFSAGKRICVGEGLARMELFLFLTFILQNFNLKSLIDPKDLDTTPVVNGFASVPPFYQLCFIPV
Data set [7] in a line: HepG2 cell cytotoxicity, dose response, cytotoxicity control for Shn3 inhibitor project, CellTiter-Glo, cherry-picked (AID 624134). Type of data set: functional, cell-based. (In ATP-based viability assays light output follows the ATP content of the culture.)
A short description of data set [8]: Shn3 3'UTR reporter inhibitors, dose response, cell-based, Clone20 osteoblasts, firefly luciferase, cherry-picked (AID 624132).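 Further: firefly luciferase luminescence from reporter carrying the Shn3 3'UTR in osteoblasts.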 Type of data set: functional.
In data set [9] the target is T3, Carboxy-terminal domain RNA polymerase II polypeptide A small phosphatase 1 (Homo sapiens, UniProt Q9GZU7).
T3 sequence (Q9GZU7 whole entry): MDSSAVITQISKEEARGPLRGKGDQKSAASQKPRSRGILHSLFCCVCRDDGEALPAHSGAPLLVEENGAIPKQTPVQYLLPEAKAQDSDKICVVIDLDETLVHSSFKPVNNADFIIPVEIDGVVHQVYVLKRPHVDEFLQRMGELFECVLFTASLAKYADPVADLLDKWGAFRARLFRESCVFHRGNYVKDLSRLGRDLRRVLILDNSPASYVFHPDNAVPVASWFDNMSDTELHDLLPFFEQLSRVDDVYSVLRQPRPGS
As to the kind of experiment: inhibitors of CTDSP1, concentration-response testing, biochemical assay, absorbance-based, actives from ultra-high-throughput screening (AID 540297). Format: functional.

On to `Cc1sc2ncnc(N3CCC(C(=O)Nc4nc5ccc(Cl)cc5s4)CC3)c2c1C`, for which the EC50 (as a rule, the concentration giving half of the maximal effect) in data set [1] was 19.2 µM (active); in the data set on H4, 28.5 µM (active); in data set [2] it was 8.58 µM (active).
With `Cc1nc(SCC(=O)NCCc2ccccc2)c2oc3ccccc3c2n1`, the AC50 (usually the concentration at which the activity in the assay is half-maximal) at Cytochrome P450 2C9 was 0.398 µM (inconclusive); at Cytochrome P450 1A2 it was 0.562 µM (inconclusive); at Cytochrome P450 3A4, 39.8 µM (inconclusive).
On to `c1cc(CN2CCN(C3CCCCCC3)CC2)ccn1`, for which the IC50 (commonly the midpoint of a concentration-inhibition curve) in data set [3] was 92 µM (active).
Regarding `CC(C)(C)[S@@+]([O-])N1Cc2cc(C(=O)N[C@@H]3CCN(Cc4ccccc4)C3)nc(-c3cccc(-c4ccncc4)c3)c2[C@H]1CCO`, the AC50 in data set [4] is 6.63 µM (active).
With `COc1ccc(-c2nc3cnc(OC)nc3n(Cc3cccc(OC)c3)c2=O)cc1`, on Cytochrome P450 2C9, the AC50 is 3.16 µM (inconclusive).
Take `CCN1CCN(CCOc2cccc(Cl)c2Cl)CC1`: the concentration for a half-maximal effect (EC50) in data set [5] was 0.151 µM (active); in data set [6] it was > 60 µM (not active). Further, in data set [3], the IC50 is 70.4 µM (active).
`CCCCc1nc2cc(C(=O)N(C)C3CCOCC3)ccc2o1`: the EC50 in data set [1] is 15 µM (active); in the data set on H4, 0.399 µM (active); in [2], 1.36 µM (active).
In the same order, the values of `CCOC(=O)c1cnn(-c2ncnc3c2cnn3C)c1N` are 10.9 µM (active), 90.5 µM (active) and 31.6 µM (active).
Regarding `COc1ccc(-n2c(=O)c(C)nc3cnc(Oc4cccc(Cl)c4)nc32)cc1`, the AC50 is 25.1 µM (inconclusive) at Cytochrome P450 2D6, 25.1 µM (inconclusive) at Cytochrome P450 2C9, 39.8 µM (inconclusive) on Cytochrome P450 2C19 (read-out: AC50) and 3.16 µM (inconclusive) on Cytochrome P450 3A4.
For `CCn1c(=O)n(CC)c2cc(N3CCCC3)c(NC(=O)c3ccccc3)cc21`, the IC50 in data set [3] was 91 µM (active).
For `Cc1ccc(NC(=O)C2CCC(C(C)(C)C)CC2)cc1S(=O)(=O)N1CCOCC1` (configuration not stated), the AC50 is 53.1 µM (active) in data set [7] and 12.2 µM (active) in [8].
In the case of `CC(=O)Nc1ccc2[nH]c(C3CCCCC3)nc2c1`, the AC50 is 17.8 µM (inconclusive) at Cytochrome P450 2C9 and “inconclusive” on Cytochrome P450 2C19.
In the case of `Cc1cc(C=C(C#N)C#N)c(C)n1-c1ccccc1`, the AC50 on Cytochrome P450 2C9 is 1.12 µM (inconclusive); at Cytochrome P450 1A2, 2.24 µM (inconclusive).
`O=C(C1CCCC1)N1CC(=O)N2[C@H](C1)[C@@H](c1ccc(C#CCc3ccccc3)cc1)[C@@H]2CO`: in [4], the AC50 was 4.51 µM (active).
In the case of `COc1cccc(CN2CCN(Cc3cc(OC)c(OC)c(OC)c3)CC2)c1OC`, the IC50 in [3] was 74.8 µM (active).
In the case of `COc1ccc(NC(=O)Cn2nnc(-c3ccccc3NC(=O)c3cccs3)n2)cc1`, the results for the EC50 (in data set [1]; in the data set with H4; in data set [2]) were 3.68 µM (active), > 120 µM (not active) and > 120 µM (not active), respectively.
For `COc1cccc(NC(=O)CN(C)C(=O)c2cc(-c3ccco3)nc3ccccc23)c1`, in [9], the IC50 was 6.41 µM (active).
As for `CC(C)(C)c1nc(NCCN2CCOCC2)c2nnn(Cc3ccccc3Cl)c2n1`, the AC50 was 56.5 µM (active) in [7] and 8.85 µM (active) in data set [8].
`CCn1c(O)cc(=O)nc1SCC(=O)Nc1ccc(C)cc1`: the half-maximal effective concentration (EC50) (in data set [1]; in the data set on H4; in data set [2]) was > 120 µM (not active) each time.
As for `Cc1cc(OCCCN2CCN(Cc3ccccc3)CC2)ccc1[N+](=O)[O-]`, the EC50 was 0.156 µM (active) in data set [5] and > 60 µM (inconclusive) in data set [6]. Besides, the IC50 in data set [3] was 62 µM (active).
As for `CCCCNC(=O)CSc1nc2ccccc2c(=O)n1CCNC(C)=O`, the AC50 at Cytochrome P450 2C9 is 22.4 µM (inconclusive).
Take `O=S(=O)(Nc1ccc2[nH]c(-c3ccco3)nc2c1)c1ccccc1`: the EC50 was 36.8 µM (active) in data set [1], 17.3 µM (active) in the data set on H4 and 14.8 µM (active) in [2].
With `COCC(=O)Nc1ccc2c(c1)C(=O)N(C)C[C@H](OC)[C@H](C)CN(Cc1cccc(F)c1)[C@@H](C)CO2`, the AC50 in [4] is 5.34 µM (active).
On to `COc1ccc(NC(=O)c2c3c(nc4ccccc24)CCC3)cc1S(=O)(=O)N1CCOCC1`, for which the IC50 in data set [9] is 3.75 µM (active).
Consider `O=S(=O)(c1ccccc1)N1CCC[C@@]2(CCN(c3ccccc3)C2)C1`, for which the AC50 at Cytochrome P450 2C9 was 2.51 µM (inconclusive).
As for `CCN1C(=O)/C(=C\N2CCCCCC2)SC1=S`, the EC50 is 7.47 µM (active) in [1], 12.8 µM (active) with H4 and > 120 µM (not active) in data set [2].
For `COc1ccc(-n2nc(C(=O)NCC(=O)N3CCN(c4ccccc4F)CC3)c3ccccc3c2=O)cc1` the same measures were 8.08 µM (active), 95.7 µM (active) and 27.8 µM (active).
Consider `Cc1nc2ccccn2c1C(=O)C1=C(O)C(=O)N(CCN2CCOCC2)C1c1cccnc1` (configuration not stated), for which, on Cytochrome P450 2C9, the AC50 was 17.8 µM (inconclusive).
On to `COc1ccc(S(=O)(=O)N2CCC(N3CCN(c4ccccc4OC)CC3)CC2)cc1`, for which, in data set [3], the half-maximal inhibitory concentration (IC50) was 121 µM (active).
On to `Cc1cccc(C(=O)NNC(=O)c2ccc(-c3ccccc3)cc2)c1`, for which, in [9], the IC50 is 5.8 µM (active).
For `O=C(NN=C1CCCC1)c1cc(O)cc(O)c1`, the IC50 in data set [9] is 10.2 µM (active).
Consider `Cc1c(N2C(=O)/C(=C3/C(=O)N(C)c4ccccc43)SC2=S)c(=O)n(-c2ccccc2)n1C`, for which the AC50 on Cytochrome P450 2D6 is 7.94 µM (inconclusive); at Cytochrome P450 2C9, 12.6 µM (inconclusive); on Cytochrome P450 1A2, 25.1 µM (inconclusive); at Cytochrome P450 3A4 it was 15.8 µM (inconclusive).
With `Cc1ccc(C(=O)NCC2CCCO2)cc1N1CCCC1=O` (configuration not stated), the AC50 at Cytochrome P450 2C9 was 2.82 µM (inconclusive); on Cytochrome P450 2C19, “inconclusive”.
For the compound `O=C(O)Cn1cc(/C=C2\C(=O)NC(=O)N(c3ccc(Cl)cc3)C2=O)c2ccccc21`, the IC50 in data set [3] was 255 µM (active).
For `COc1ccc(Oc2ncc3nc(-c4cccc(C#N)c4)c(=O)n(Cc4cccc(OC)c4)c3n2)cc1`, the AC50 on Cytochrome P450 2C9 is 2.51 µM (inconclusive).
With `COc1ccc(/C=C2\C(=O)NC(=S)N(C)C2=O)cc1C`, the IC50 in data set [3] is 21.4 µM (active); in data set [9], 0.632 µM (active).
In the case of `CCc1cc(-c2[nH]nc(CCC(=O)O)c2-c2nc3ccccc3n2C)c(O)cc1O`, the IC50 in [3] was 122 µM (active).
Take `C=CC[C@@H]1C=C[C@H](O/N=C(\C)CCN2CCc3nc(-c4ccccc4)c(-c4ccccc4)cc3C2)[C@H](CO)O1`: on Cytochrome P450 2C9, the AC50 is 0.0794 µM (inconclusive).
